Values joined by “and” are separate entries in the source; they are usually repeats but may differ in a detail not shown here. Identical values can stand only once. After the bases stand the sugars from the 5' end (letter, count) and the backbone: PS all phosphorothioate, else s phosphorothioate and o phosphodiester by linkage. Methylation of C is not given here. e = 2'-O-(2-methoxyethyl) (MOE); l = locked nucleic acid (LNA); k = constrained ethyl (cEt); d = 2'-deoxy (DNA)
Key:
[1] = target: ANGPTL2; conditions: ASO
[2] = target: KRAS; conditions: ASO

AAGCATCATTGAAAATTC (sugars l4 d10 l4, PS)
target mRNA inhibition ([1]; 5 µM): 75.9% | target mRNA inhibition ([1]; 25 µM): 85.1%

AAGCTGTTGAAATGTATG (sugars l3 d11 l4, PS)
target mRNA inhibition ([1]; 5 µM): 41.3% | target mRNA inhibition ([1]; 25 µM): 30.4%

AATTTACAGTTCTTTGTC (sugars l4 d10 l4, PS)
target mRNA inhibition ([1]; 5 µM): 78.2% | target mRNA inhibition ([1]; 25 µM): 83.3%

ACATGTATATTATGAAGGTA (sugars l4 d14 l2, PS)
target mRNA inhibition ([1]; 5 µM): 18.1% | target mRNA inhibition ([1]; 25 µM): 8.64%

ACCATTTTGAGATTCCC (sugars l2 d13 l2, PS)
target mRNA inhibition ([1]; 5 µM): 30% | target mRNA inhibition ([1]; 25 µM): 24.7%

ACCATTTTGAGATTCCCC (sugars l1 d15 l2, PS)
target mRNA inhibition ([1]; 5 µM): -8.3% | target mRNA inhibition ([1]; 25 µM): 18.9%

ACTAAATGAACTTCCACA (sugars l4 d11 l3, PS)
target mRNA inhibition ([1]; 5 µM): 44.6% | target mRNA inhibition ([1]; 25 µM): 64.9%

ACTTCTATTCTTGGACC (sugars l2 d13 l2, PS)
target mRNA inhibition ([1]; 5 µM): 47.8% | target mRNA inhibition ([1]; 25 µM): 55.7%

ATGATGCGGTTGTAGG (sugars l2 d11 l3, PS)
target mRNA inhibition ([1]; 5 µM): 69.8% | target mRNA inhibition ([1]; 25 µM): 81.1%

ATTTTGAGATTCCCCCAAAG (sugars l1 d17 l2, PS)
target mRNA inhibition ([1]; 5 µM): 10.8% | target mRNA inhibition ([1]; 25 µM): 2.99%

CAAGAGGGAGGGGAGGACA (sugars l1 d16 l2, PS)
target mRNA inhibition ([1]; 5 µM): 36.8% | target mRNA inhibition ([1]; 25 µM): 42.9%

CAGGCCAACACTAACTCGG (sugars l1 d16 l2, PS)
target mRNA inhibition ([1]; 5 µM): 49% | target mRNA inhibition ([1]; 25 µM): 57%

CATCTAAGGAATGTGGT (sugars l4 d11 l2, PS)
target mRNA inhibition ([1]; 5 µM): 63.7% | target mRNA inhibition ([1]; 25 µM): 71.9%

CATTTATGTGACTAGA (sugars k3 d10 k3, PS)
target mRNA inhibition ([2]; A431, 2 µM): 56%

CATTTATGTGACTAGA (sugars kkddddddddkekekk, PS)
target mRNA inhibition ([2]; A431, 2 µM): 20%

CCAACCATAAATTAATTG (sugars l4 d10 l4, PS)
target mRNA inhibition ([1]; 5 µM): 61.8% | target mRNA inhibition ([1]; 25 µM): 74.5%

CCACACCCAACATTTTA (sugars l2 d13 l2, PS)
target mRNA inhibition ([1]; 5 µM): 56.8% | target mRNA inhibition ([1]; 25 µM): 63%

CCAGTATTAACACAGA (sugars k3 d10 k3, PS)
target mRNA inhibition ([2]; A431, 2 µM): 37%

CCAGTGATACTTTCAC (sugars kddddddddddkekek, PS)
target mRNA inhibition ([2]; A431, 2 µM): 0%

CCAGTGTTAAGAGAAC (sugars kkddddddddkekekk, PS)
target mRNA inhibition ([2]; A431, 2 µM): 53%

CCAGTGTTAAGAGAAC (sugars kkkddddddddkekek, PS)
target mRNA inhibition ([2]; A431, 2 µM): 37%

CTATAATAATCCCCAT (sugars k3 d10 k3, PS)
target mRNA inhibition ([2]; A431, 2 µM): 6%

CTATTCATACCAGGTT (sugars k3 d10 k3, PS)
target mRNA inhibition ([2]; A431, 2 µM): 33%

CTCTTGATTTGTCAGC (sugars k3 d10 k3, PS)
target mRNA inhibition ([2]; A431, 0.037 µM): 66% | target mRNA inhibition ([2]; A431, 0.125 µM): 64% and 57% | target mRNA inhibition ([2]; NCI-H460, 0.037 µM): 55.4%

CTTATGCAGAGAAAAC (sugars k3 d10 k3, PS)
target mRNA inhibition ([2]; A431, 2 µM): 8%

CTTGATTTGTCAGCAG (sugars kkdddddddddkekek, PS)
target mRNA inhibition ([2]; A431, 2 µM): 49%

GACTAATAGCAGTGGA (sugars k3 d10 k3, PS)
target mRNA inhibition ([2]; A431, 2 µM): 52% and 62%

GAGGCAAGATGACACT (sugars k3 d10 k3, PS)
target mRNA inhibition ([2]; A431, 2 µM): 0%

GAGTCTTTATAGTAAT (sugars kddddddddddkekek, PS)
target mRNA inhibition ([2]; A431, 2 µM): 11%

GATTGTGCTGAGCTTG (sugars kkddddddddddkeke, PS)
target mRNA inhibition ([2]; A431, 2 µM): 19%

GATTGTGCTGAGCTTG (sugars kkkddddddddkekek, PS)
target mRNA inhibition ([2]; A431, 2 µM): 37%

GATTTGTCAGCAGGAC (sugars k3 d10 k3, PS)
target mRNA inhibition ([2]; A431, 0.037 µM): 68% | target mRNA inhibition ([2]; A431, 2 µM): 47% | target mRNA inhibition ([2]; A431, 5 µM): 96% and 93% | target mRNA inhibition ([2]; NCI-H460, 0.037 µM): 60.1%

GATTTGTCAGCAGGAC (sugars kddddddddddkekek, PS)
target mRNA inhibition ([2]; A431, 0.185 µM): 16% | target mRNA inhibition ([2]; A431, 0.556 µM): 46% | target mRNA inhibition ([2]; A431, 1.667 µM): 62% | target mRNA inhibition ([2]; A431, 2 µM): 57% | target mRNA inhibition ([2]; A431, 5 µM): 78%

GATTTGTCAGCAGGAC (sugars kdddddddddkekeke, PS)
target mRNA inhibition ([2]; A431, 2 µM): 32%

GCAAGATGACACTAAT (sugars k3 d10 k3, PS)
target mRNA inhibition ([2]; A431, 2 µM): 30%

GCAATGTTAATTTAAC (sugars k3 d10 k3, PS)
target mRNA inhibition ([2]; A431, 2 µM): 17%

GCAGTGTGACTCAGTT (sugars k3 d10 k3, PS)
target mRNA inhibition ([2]; A431, 2 µM): 48%

GCTAAAACAAATGCTA (sugars k3 d10 k3, PS)
target mRNA inhibition ([2]; A431, 2 µM): 33%

GCTAATAATTTAGTGT (sugars k3 d10 k3, PS)
target mRNA inhibition ([2]; A431, 2 µM): 18%

GGAGTCTTTATAGTAA (sugars kkkddddddddkekek, PS)
target mRNA inhibition ([2]; A431, 2 µM): 0%

GGCATTGCTAGTTCAA (sugars k3 d10 k3, PS)
target mRNA inhibition ([2]; A431, 2 µM): 43%

GGTGAATATCTTCAAA (sugars k3 d10 k3, PS)
target mRNA inhibition ([2]; A431, 2 µM): 28%

GGTGTAACATAGGTTA (sugars kddddddddddkekek, PS)
target mRNA inhibition ([2]; A431, 0.185 µM): 15% | target mRNA inhibition ([2]; A431, 0.556 µM): 39% | target mRNA inhibition ([2]; A431, 1.667 µM): 62% | target mRNA inhibition ([2]; A431, 2 µM): 64% | target mRNA inhibition ([2]; A431, 5 µM): 80%

Reference: the OligoGym collection
